Patent US11274083B2, “Substituted thiophenyl uracils, salts thereof and the use thereof as herbicidal agents” (Syngenta Crop Protection AG, priority 2017, dated 2022)

Legend:
Assay type in all cases: in vivo
Matricaria inodora [1] = experiment: Herbicidal action pre-emergence, greenhouse pot test
Source text: Seeds of mono- and dicotyledonous weeds and crop plants were laid out in plastic or organic plant pots and covered with soil. The compounds of the invention formulated in the form of wettable powders (WP) or as emulsion concentrates (EC) were then applied to the surface of the covering soil as an aqueous suspension or emulsion with addition of 0.5% additive at a water application rate equivalent to 600 L/ha. After the treatment, the pots were placed in a greenhouse and kept under good growth conditions for the test plants. After about 3 weeks, the efficacy of the preparations was scored visually as a percentage by comparison with untreated controls. For example, 100% efficacy=plants have died. 0% efficacy=like control plants. Tables B1 to B17 below show the efficacies of selected compounds of the general formula (I) […] aforementioned trial method.

Veronica persica [2] = experiment: as above
Source text: (§1) Seeds of mono- and dicotyledonous weeds and crop plants were laid out in plastic or organic plant pots and covered with soil. The compounds of the invention formulated in the form of wettable powders (WP) or as emulsion concentrates (EC) were then applied to the surface of the covering soil as an aqueous suspension or emulsion with addition of 0.5% additive at a water application rate equivalent to 600 L/ha. After the treatment, the pots were placed in a greenhouse and kept under good growth conditions for the test plants. After about 3 weeks, the efficacy of the preparations was scored visually as a percentage by comparison with untreated controls. For example, 100% efficacy=plants have died. 0% efficacy=like control plants. Tables B1 to B17 below show the efficacies of selected compounds of the general formula (I) according to tables I.1 to I.50 on various harmful plants and an application rate corresponding to 320 g/ha or lower that were obtained by the aforementioned trial method.

Lolium rigidum [3] = experiment: as above
Source text: as §1

Abutilon theophrasti [4] = experiment: as above
Source text: as §1

Alopecurus myosuroides [5] = experiment: as above; conditions: application rate 320 g/ha
Source text: as §1

Avena fatua = experiment: as above; conditions: application rate 320 g/ha
Source text: as §1

Viola tricolor [6] = experiment: as above
Source text: as §1

Echinochloa crus-galli [7] = experiment: as above; conditions: application rate 320 g/ha
Source text: as §1

Stellaria media [8] = experiment: as above
Source text: as §1

Polygonum convolvulus [9] = experiment: as above
Source text: as §1

Hordeum murinum = experiment: as above; conditions: application rate 320 g/ha
Source text: as §1

Setaria viridis [10] = experiment: as above
Source text: as §1

Amaranthus retroflexus [11] = experiment: as above
Source text: as §1

Pharbitis purpurea [12] = experiment: as above
Source text: as §1

Veronica persica [13] = experiment: Herbicidal action post-emergence, greenhouse pot test; conditions: application rate 80 g/ha
Description: (§2) Seeds of mono- and dicotyledonous weed plants and crop plants were laid out in sandy loam soil in plastic or wood-fiber pots, covered with soil and grown under controlled growth conditions in a greenhouse. 2 to 3 weeks after sowing, the trial plants were treated at the one-leaf stage. The compounds of the invention formulated in the form of wettable powders (WP) or as emulsion concentrates (EC) were then sprayed onto the green parts of the plant as an aqueous suspension or emulsion with addition of 0.5% additive at a water application rate equivalent to 600 L/ha. After the trial plants had stood for about 3 weeks in the greenhouse, under optimal growth conditions, the effect of the preparations was scored visually by comparison with untreated controls. For example, 100% efficacy=plants have died, 0% efficacy=like control plants. Tables A1 to A16 below show the efficacies of selected compounds of the general formula (I) according to tables I.1 to I.50 on various harmful plants and an application rate corresponding to 80 g/ha or lower that were obtained by the aforementioned trial method.

Matricaria inodora [14] = experiment: as above; conditions: application rate 80 g/ha
Description: as §2

Lolium rigidum [15] = experiment: as above; conditions: application rate 80 g/ha
Description: as §2

Abutilon theophrasti [16] = experiment: as above; conditions: application rate 80 g/ha
Description: as §2

Alopecurus myosuroides [17] = experiment: as above; conditions: application rate 80 g/ha, scored visually after about 3 weeks vs untreated controls
Description: as §2

Viola tricolor [18] = experiment: as above
Description: as §2

Echinochloa crus-galli [19] = experiment: as above; conditions: application rate 80 g/ha
Description: as §2

Stellaria media [20] = experiment: as above; conditions: application rate 80 g/ha
Description: as §2

Polygonum convolvulus [21] = experiment: as above; conditions: application rate 80 g/ha
Description: as §2

Setaria viridis [22] = experiment: as above; conditions: application rate 80 g/ha
Description: as §2

Amaranthus retroflexus [23] = experiment: as above
Description: as §2

Pharbitis purpurea [24] = experiment: as above; conditions: application rate 80 g/ha
Description: as §2

Triticum aestivum = experiment: Crop compatibility post-emergence, greenhouse pot test
Description: as §2, with “plants.” for “plants. Tables A1 to A16 below show the efficacies of selected compounds of the general formula (I) according to tables I.1 to I.50 on various harmful plants and an application rate corresponding to 80 g/ha or lower that were obtained by the aforementioned trial method.”
(§3) Crop plant compatibilities were also scored correspondingly.
(§4) The effects observed are reported here on selected crop plants by comparison, with the untreated controls (values in %).

Zea mays = experiment: as above; conditions: application rate 5 g/ha
Description: as §2, with “plants.” for “plants. Tables A1 to A16 below show the efficacies of selected compounds of the general formula (I) according to tables I.1 to I.50 on various harmful plants and an application rate corresponding to 80 g/ha or lower that were obtained by the aforementioned trial method.”
as §3, §4

Oryza sativa = experiment: as above; conditions: application rate 20 g/ha
Description: as §2, with “plants.” for “plants. Tables A1 to A16 below show the efficacies of selected compounds of the general formula (I) according to tables I.1 to I.50 on various harmful plants and an application rate corresponding to 80 g/ha or lower that were obtained by the aforementioned trial method.”
as §3, §4

| Compound | Alopecurus myosuroides (Efficacy in %) (Alopecurus myosuroides [5]) | Avena fatua (Efficacy in %) (Avena fatua) | Echinochloa crus-galli (Efficacy in %) (Echinochloa crus-galli [7]) | Hordeum murinum (Efficacy in %) (Hordeum murinum) | Amaranthus retroflexus (Efficacy in %) (Amaranthus retroflexus [11]; application rate 80 g/ha) | Veronica persica (Efficacy in %) (Veronica persica [13]) | Matricaria inodora (Efficacy in %) (Matricaria inodora [14]) | Lolium rigidum (Efficacy in %) (Lolium rigidum [15]) | Abutilon theophrasti (Efficacy in %) (Abutilon theophrasti [16]) | Alopecurus myosuroides (Efficacy in %) (Alopecurus myosuroides [17]) | Echinochloa crus-galli (Efficacy in %) (Echinochloa crus-galli [19]) | Stellaria media (Efficacy in %) (Stellaria media [20]) | Polygonum convolvulus (Efficacy in %) (Polygonum convolvulus [21]) | Setaria viridis (Efficacy in %) (Setaria viridis [22]) | Amaranthus retroflexus (Efficacy in %) (Amaranthus retroflexus [23]; application rate 80 g/ha) | Pharbitis purpurea (Efficacy in %) (Pharbitis purpurea [24]) | Matricaria inodora (Efficacy in %) (Matricaria inodora [1]; application rate 320 g/ha) | Veronica persica (Efficacy in %) (Veronica persica [2]; application rate 320 g/ha) | Lolium rigidum (Efficacy in %) (Lolium rigidum [3]; application rate 320 g/ha) | Abutilon theophrasti (Efficacy in %) (Abutilon theophrasti [4]; application rate 320 g/ha) | also measured |
| --- | --- | --- | --- | --- | --- | --- | --- | --- | --- | --- | --- | --- | --- | --- | --- | --- | --- | --- | --- | --- | --- |
| CCOC(=O)CC(C)OC(=O)C(C)Sc1cc(-n2c(=O)cc(C(F)(F)F)n(C)c2=O)c(F)cc1Cl (centres unmarked) [I.1-23] | 100% | 100% | 100% | 100% | 100% | 100% | 100% | 90% | 100% | 90% | 100% | 100% | 100% | 100% | 100% | 100% |  |  |  |  | Matricaria inodora (Efficacy in %) (Matricaria inodora [1]; application rate 800 g/ha): 100%; Veronica persica (Efficacy in %) (Veronica persica [2]; application rate 80 g/ha): 100%; Lolium rigidum (Efficacy in %) (Lolium rigidum [3]; application rate 80 g/ha): 100%; Abutilon theophrasti (Efficacy in %) (Abutilon theophrasti [4]; application rate 80 g/ha): 100%; Viola tricolor (Efficacy in %) (Viola tricolor [6]; application rate 80 g/ha): 100%; Stellaria media (Efficacy in %) (Stellaria media [8]; application rate 80 g/ha): 100%; Polygonum convolvulus (Efficacy in %) (Polygonum convolvulus [9]; application rate 80 g/ha): 100%; Setaria viridis (Efficacy in %) (Setaria viridis [10]; application rate 80 g/ha): 100%; Pharbitis purpurea (Efficacy in %) (Pharbitis purpurea [12]; application rate 80 g/ha): 100%; Viola tricolor (Efficacy in %) (Viola tricolor [18]; application rate 20 g/ha): 100%; Triticum aestivum (Efficacy in %) (Triticum aestivum; application rate 20 g/ha): 20% |
| CC(Sc1cc(-n2c(=O)cc(C(F)(F)F)n(C)c2=O)c(F)cc1Cl)C(=O)OCCC(N)=O (centres unmarked) [I.1-151] |  | 90% | 100% | 80% | 100% | 100% | 100% |  | 100% | 90% | 100% | 90% | 100% | 100% | 100% | 100% | 100% | 100% | 90% | 100% | Viola tricolor (Efficacy in %) (Viola tricolor [6]; application rate 320 g/ha): 100%; Stellaria media (Efficacy in %) (Stellaria media [8]; application rate 320 g/ha): 100%; Polygonum convolvulus (Efficacy in %) (Polygonum convolvulus [9]; application rate 320 g/ha): 100%; Setaria viridis (Efficacy in %) (Setaria viridis [10]; application rate 320 g/ha): 100%; Pharbitis purpurea (Efficacy in %) (Pharbitis purpurea [12]; application rate 320 g/ha): 100%; Viola tricolor (Efficacy in %) (Viola tricolor [18]; application rate 80 g/ha): 100%; Triticum aestivum (Efficacy in %) (Triticum aestivum; application rate 80 g/ha): 20%; Zea mays (Efficacy in %) (Zea mays): 20%; Oryza sativa (Efficacy in %) (Oryza sativa): 10% |
| CC(Sc1cc(-n2c(=O)cc(C(F)(F)F)n(C)c2=O)c(F)cc1Cl)C(=O)OCCC(=O)O (centres unmarked) [I.1-1] | 100% |  | 100% | 90% |  | 100% | 100% | 80% | 100% |  | 100% | 100% | 100% | 100% |  | 100% | 100% | 100% | 100% | 100% | Viola tricolor (Efficacy in %) (Viola tricolor [6]; application rate 320 g/ha): 100%; Stellaria media (Efficacy in %) (Stellaria media [8]; application rate 320 g/ha): 100%; Polygonum convolvulus (Efficacy in %) (Polygonum convolvulus [9]; application rate 320 g/ha): 100%; Setaria viridis (Efficacy in %) (Setaria viridis [10]; application rate 320 g/ha): 100%; Amaranthus retroflexus (Efficacy in %) (Amaranthus retroflexus [11]; application rate 20 g/ha): 100%; Pharbitis purpurea (Efficacy in %) (Pharbitis purpurea [12]; application rate 320 g/ha): 100%; Viola tricolor (Efficacy in %) (Viola tricolor [18]; application rate 80 g/ha): 100%; Amaranthus retroflexus (Efficacy in %) (Amaranthus retroflexus [23]; application rate 20 g/ha): 100%; Triticum aestivum (Efficacy in %) (Triticum aestivum; application rate 80 g/ha): 20%; Zea mays (Efficacy in %) (Zea mays): 10% |
